Key:
Experiment in all cases: relative viability (nuclei count vs DMSO), 5 days (fraction); higher = more cells survive
[1] = test system: 201T
Summary of the method: (§1)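 Relative viability is defined as nuclei in treated wells over nuclei in vehicle wells. Duplicate plates were run and medians reported. Lung cancer cell lines in 1536-well plates were dosed by pin tool one day after seeding, with one drug or with a fixed anchor-drug dose plus five library-drug doses (not always all listed) in √10 steps, and nuclei were counted after 5 days.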

[2] = test system: ABC-1
Summary of the method: as §1

[3] = test system: CAL-12T
Summary of the method: as §1

[4] = test system: ChaGo-K-1
Summary of the method: as §1

[5] = test system: EMC-BAC-2
Summary of the method: as §1

[6] = test system: H3255
Summary of the method: as §1

[7] = test system: HOP-62
Summary of the method: as §1

[8] = test system: LK-2
Summary of the method: as §1

[9] = test system: LXF-289
Summary of the method: as §1

[10] = test system: NCI-H1651
Summary of the method: as §1

[11] = test system: NCI-H1734
Summary of the method: as §1

[12] = test system: NCI-H1755
Summary of the method: as §1

[13] = test system: NCI-H2009
Summary of the method: as §1

[14] = test system: NCI-H2087
Summary of the method: as §1

[15] = test system: NCI-H2126
Summary of the method: as §1

[16] = test system: NCI-H2170
Summary of the method: as §1

[17] = test system: NCI-H3122
Summary of the method: as §1

[18] = test system: NCI-H322M
Summary of the method: as §1

[19] = test system: NCI-H441
Summary of the method: as §1

[20] = test system: NCI-H596
Summary of the method: as §1

[21] = test system: NCI-H647
Summary of the method: as §1

[22] = test system: PC-14
Summary of the method: as §1

[23] = test system: SK-MES-1
Summary of the method: as §1

Cc1cnc(-c2cnc(NCCNc3ccc(C#N)cn3)nc2-c2ccc(Cl)cc2Cl)[nH]1 + Cc1cc(Nc2cc(N3CCN(C)CC3)nc(Sc3ccc(NC(=O)C4CC4)cc3)n2)n[nH]1 [Tozasertib] (partner 0.1 µM)
relative viability ([1]; first compound 0.08 µM): 0.93 | relative viability ([1]; first compound 0.8 µM): 0.904 | relative viability ([1]; first compound 2.53 µM): 0.884 | relative viability ([2]; first compound 0.08 µM): 0.213 | relative viability ([2]; first compound 0.253 µM): 0.158 | relative viability ([2]; first compound 0.8 µM): 0.22 | relative viability ([2]; first compound 2.53 µM): 0.221 | relative viability ([3]; first compound 0.08 µM): 0.346 | relative viability ([3]; first compound 0.253 µM): 0.302 | relative viability ([3]; first compound 0.8 µM): 0.234 | relative viability ([3]; first compound 2.53 µM): 0.211 | relative viability ([4]; first compound 0.08 µM): 0.241 | relative viability ([4]; first compound 0.253 µM): 0.215 | relative viability ([4]; first compound 0.8 µM): 0.231 | relative viability ([4]; first compound 2.53 µM): 0.22 | relative viability ([5]; first compound 0.08 µM): 0.313 | relative viability ([5]; first compound 0.253 µM): 0.261 | relative viability ([5]; first compound 0.8 µM): 0.252 | relative viability ([5]; first compound 2.53 µM): 0.273 | relative viability ([6]; first compound 0.08 µM): 0.951 | relative viability ([6]; first compound 0.253 µM): 0.511 | relative viability ([6]; first compound 0.8 µM): 0.593 | relative viability ([6]; first compound 2.53 µM): 0.65 | relative viability ([7]; first compound 0.08 µM): 0.321 | relative viability ([7]; first compound 0.253 µM): 0.353 | relative viability ([7]; first compound 0.8 µM): 0.36 | relative viability ([7]; first compound 2.53 µM): 0.288 | relative viability ([8]; first compound 0.08 µM): 0.164 | relative viability ([8]; first compound 0.253 µM): 0.176 | relative viability ([8]; first compound 0.8 µM): 0.188 | relative viability ([8]; first compound 2.53 µM): 0.148 | relative viability ([9]; first compound 0.08 µM): 0.223 | relative viability ([9]; first compound 0.253 µM): 0.155 | relative viability ([9]; first compound 0.8 µM): 0.18 | relative viability ([9]; first compound 2.53 µM): 0.161 | relative viability ([10]; first compound 0.08 µM): 0.7 | relative viability ([10]; first compound 0.253 µM): 0.648 | relative viability ([10]; first compound 0.8 µM): 0.682 | relative viability ([10]; first compound 2.53 µM): 0.565 | relative viability ([11]; first compound 0.08 µM): 0.314 | relative viability ([11]; first compound 0.253 µM): 0.253 | relative viability ([11]; first compound 0.8 µM): 0.261 | relative viability ([11]; first compound 2.53 µM): 0.247 | relative viability ([12]; first compound 0.08 µM): 0.585 | relative viability ([12]; first compound 0.253 µM): 0.521 | relative viability ([12]; first compound 0.8 µM): 0.595 | relative viability ([12]; first compound 2.53 µM): 0.539 | relative viability ([13]; first compound 0.08 µM): 0.734 | relative viability ([13]; first compound 0.253 µM): 0.695 | relative viability ([13]; first compound 0.8 µM): 0.794 | relative viability ([13]; first compound 2.53 µM): 0.452 | relative viability ([14]; first compound 0.08 µM): 0.249 | relative viability ([14]; first compound 0.253 µM): 0.203 | relative viability ([14]; first compound 0.8 µM): 0.211 | relative viability ([14]; first compound 2.53 µM): 0.128 | relative viability ([15]; first compound 0.08 µM): 1.02 | relative viability ([15]; first compound 0.253 µM): 0.802 | relative viability ([15]; first compound 0.8 µM): 0.844 | relative viability ([15]; first compound 2.53 µM): 0.837 | relative viability ([16]; first compound 0.08 µM): 0.73 | relative viability ([16]; first compound 0.253 µM): 0.566 | relative viability ([16]; first compound 0.8 µM): 0.713 | relative viability ([16]; first compound 2.53 µM): 0.699 | relative viability ([17]; first compound 0.08 µM): 0.414 | relative viability ([17]; first compound 0.8 µM): 0.392 | relative viability ([17]; first compound 2.53 µM): 0.33 | relative viability ([18]; first compound 0.08 µM): 0.51 | relative viability ([18]; first compound 0.253 µM): 0.464 | relative viability ([18]; first compound 0.8 µM): 0.438 | relative viability ([18]; first compound 2.53 µM): 0.466 | relative viability ([19]; first compound 0.08 µM): 0.775 | relative viability ([19]; first compound 0.253 µM): 0.654 | relative viability ([19]; first compound 0.8 µM): 0.602 | relative viability ([19]; first compound 2.53 µM): 0.405 | relative viability ([20]; first compound 0.08 µM): 0.925 | relative viability ([20]; first compound 0.253 µM): 0.752 | relative viability ([20]; first compound 0.8 µM): 0.839 | relative viability ([20]; first compound 2.53 µM): 0.793 | relative viability ([21]; first compound 0.08 µM): 0.306 | relative viability ([21]; first compound 0.253 µM): 0.163 | relative viability ([21]; first compound 0.8 µM): 0.263 | relative viability ([21]; first compound 2.53 µM): 0.172 | relative viability ([22]; first compound 0.08 µM): 0.611 | relative viability ([22]; first compound 0.253 µM): 0.47 | relative viability ([22]; first compound 0.8 µM): 0.551 | relative viability ([22]; first compound 2.53 µM): 0.549 | relative viability ([23]; first compound 0.08 µM): 0.964 | relative viability ([23]; first compound 0.253 µM): 0.854 | relative viability ([23]; first compound 0.8 µM): 0.999 | relative viability ([23]; first compound 2.53 µM): 0.861

Reference: the supplement of paper PMC10307832
